Results published in publication PMC7450938, “Prenatal to early postnatal neurotrophic treatment prevents Alzheimer-like behavior and pathology in mice” (Alzheimer's Research & Therapy, 2020).

How the values were obtained:
[1] = commercial service (APREDICA, Watertown, MA); cited from earlier work
tau = test: Western blots of total and hyperphosphorylated tau in hippocampus; type: in vivo, mouse
Procedure: (§1) We treated 2- to 3-month-old pregnant 3xTg-AD and WT mothers with compound P021 in mouse chow, or with vehicle feed as control at E8 until their offspring/pups reached PND21, at which point the offspring were separated and put on standard mouse chow (Fig. 1). Treatment was administered as 60 nmol peptide/g formulated diet (Research Diets; New Brunswick, NJ, USA). The vehicle-treated control animals received the same diet but without the peptide. On average, each mouse consumed ~ 2.7 g diet/day.
The animals were anesthetized with an overdose of sodium pentobarbital (125 mg/kg) and transcardially perfused with 0.1 M phosphate-buffered saline (PBS). After perfusion, the brains were removed from the skull immediately. The left hemisphere was dissected into hippocampus, cerebral cortex, cerebellum, and brain stem; immediately frozen on dry ice; and then stored at − 80 °C for biochemical analysis.
(§2) The tissue from the left cerebral hemisphere from each mouse stored at− 80 °C was homogenized in a Teflon-glass homogenizer to generate 10% (w/v) homogenate. The pre-chilled homogenization buffer contained 50 mM Tris–HCl (pH 7.4), 8.5% sucrose, 2 mM EDTA, 2 mM EGTA, 10 mM β-mercaptoethanol plus the following protease and phosphatase inhibitors: 0.5 mM AEBSF, 10 μg/mL aprotinin, 10 μg/mL leupeptin, 4 μg/mL pepstatin, 5 mM benzamidine, 20 mM β-glycerophosphate, 50 mM sodium fluoride, 1 mM sodium orthovanadate, and 100 nM okadaic acid. Each homogenate was boiled in 2× Laemmli sample buffer for 5 min, and protein concentration was measured by PierceTM 660-nm protein assay (Thermo Scientific; Rockford, IL, USA).
(§3) The samples were subjected to 10% SDS-PAGE and electro-transferred onto Immobilon-P membranes (EMD Millipore; Billerica, MA, USA). The blots were then probed with primary antibodies (Table 1) and developed with the corresponding HRP-conjugated secondary antibody and enhanced chemiluminescence (Pierce Biotechnology, Rockford, IL, USA). Densitometric quantification of protein bands in Western blots was analyzed using Multi Gauge version 3.0 software (FUJIFILM North America; Valhalla, NY, USA).

[2] = test system: NR1, NR2A, NR2B, GluR1, GluR2&3, p-CREB; test: Western blots of glutamate receptors and CREB in hippocampus; type: in vivo, mouse
Procedure: as §1, §2, §3

[3] = cited from earlier work
Description: A central objective of the field of dementia research is to inhibit, or to at least effectively modify, the course of AD, but at present, no effective treatment or cure for AD is available. CNTF is a pluripotent neurotrophic factor that has a potent effect on the development and maintenance of the nervous system, inducing neuronal survival and differentiation by stimulating gene expression of sensory, sympathetic, and motor neurons. However, the clinical therapeutic usage of recombinant neurotrophic factors is limited because of the insurmountable hurdles of unfavorable pharmacokinetic ...

Aβ plaques = test: Thioflavin-S-positive plaque load; type: in vivo; settings: subiculum, 22-month-old 3xTg-AD mice; 6 sections per mouse, n = 4 mice; P021 diet E8-PND21
Procedure: as §1
Thioflavin-S–positive (TS+) plaque load was quantified on every 12th section (roughly six sections per set) of four animals from 22-month-old groups. A modified thioflavin-S staining protocol was used as follows. Free-floating brain sections were washed in large volumes of distilled water, incubated in 0.25% KMnO4 for 4–5 min, washed with water, and treated with a solution of 1% K2S2O5 and 1% oxalic acid for 40–60 s until the brown color was completely washed out. Sections were then incubated with 0.05% thioflavin-S in water in the dark for 8 min, followed by differentiation in 80% ethanol twice for 1 min each. […] The images were taken by using a Nikon 90i fluorescent microscope, threshold using ImageJ (v.1.46r), and TS+ plaque load was quantified in the hippocampus CA1 and subiculum areas.

[4] = 4-month-old 3xTg-AD mice, P021 diet E8-PND21, vs 3xTg-Vh, n = 4
[5] = 22-month-old 3xTg-AD mice, P021 diet E8-PND21
[6] = 22-month-old 3xTg-AD mice, P021 diet E8-PND21, vs 3xTg-Vh, n = 4
[7] = 4 months, 3xTg-AD mice, P021 diet E8-PND21, n = 3-4/group
[8] = 22 months, 3xTg-AD mice, P021 diet E8-PND21, n = 3-4/group

Ac-DGGL^AG-NH2 [P021, 4-mer CNTF small molecule peptide mimetic to which adamantylated glycine was added at the C-terminal]
crossing of the blood-brain barrier [1]: enough P021 crossed the BBB to exert its effect in the brain | human-specific tau (antibody 43D) (tau; [4]): decreased | tau hyperphosphorylation at Ser202/Thr205 (antibody AT8) (tau; [4]): decrease | total tau (antibody R134d) (tau; [4]): decreased | human tau (antibody 43D) (tau; [5]): did not change significantly | hyperphosphorylated tau (antibody pT212) (tau; [5]): did not change significantly | tau hyperphosphorylation at Ser202/Thr205 (antibody AT8) (tau; [6]): decreased | tau hyperphosphorylation at Ser-396/404 (antibody PHF-1) (tau; [6]): decreased | total tau (antibody R134d) (tau; [6]): only an insignificant decrease | level of GluR1 [2, 7]: increased | level of NR1 [2, 7]: increased | level of NR2A [2, 7]: increased | level of phosphorylated CREB (p-CREB) [2, 7]: increased | level of GluR2&3 ([2]; 4 months, among groups): no significant changes | level of NR2B ([2]; 4 months, among groups): no significant changes | level of NR1 [2, 8]: increased | level of NR2A [2, 8]: increased | level of p-CREB [2, 8]: increased | level of GluR1 ([2]; 22 months, among groups): no significant changes | level of GluR2 and 3 ([2]; 22 months, among groups): no significant changes | level of NR2B ([2]; 22 months, among groups): no significant changes | BBB permeability [3]: BBB-permeable | solubility in water [3]: water-soluble | systemic adverse effects [3]: does not induce the systemic adverse effects associated with recombinant CNTF or BDNF | pharmacokinetic properties ([3]; oral administration): suitable pharmacokinetic properties for oral administration | plaque burden by thioflavin-S staining (Aβ plaques): a significant decrease
